Assay [1] concerns the target T1, APC/C (Homo sapiens, UniProt Q9NYG5). As to the kind of experiment: In vitro APC/C ubiquitylation assay with APC/C immunoprecipitated from metaphase HeLa cells. As to conditions: 100 μM, end-point assay, UBE2C as E2, dye-labeled securin, in-gel scanning, n = 5. Details: immunoprecipitated APC/C from metaphase-synchronized HeLa cells; endogenous in cells; host or cells: metaphase-synchronized HeLa cells (APC/C); the E2 is recombinant. Type of assay: biochemical. An excerpt:
To assess prevention of RING activation by our E2 mimetics, and thus validate our design strategy, we employed in vitro APC/C ubiquitylation assays containing immunoprecipitated APC/C from metaphase-synchronized HeLa cells, recombinant UBA1 (E1), UBE2C (E2), ubiquitin, and dye-labeled metaphase APC/C substrate securin (Figure A). […] To immobilize BH3 to beads, we used our models to introduce propargylglycine (Pra) (Pra-BH3) at the N-term and thus enable side chain conjugation with azide agarose beads by click chemistry (Figure E). […] Pra-BH3 also precipitated other RING-type E3 including BRCA1, BMI1, MDM2, c-CBL and c-IAP1 (Figure F). However, except for c-CBL and MDM2, those interactions were weaker, as judged by the degree of enrichment over the input of the assay (Figure G).
APC/C-dependent ubiquitination reactions were performed at 30 °C in 30 mM HEPES pH 7.4, 175 mM NaCl, 8 mM MgCl2, 0.05% Tween-20, 1 mM DTT and 5% glycerol and contained 20 nM recombinant APC/C, 340 nM CDC20, 46 nM GST-UBA1, 340 nM UBE2C (alternatively 400 nM UBE2D, 280 nM UBE2S), 21 μM His6-ubiquitin or if it is indicated 21 μM methylated-ubiquitin (BostonBiochem), 2.6 mM ATP, 10 mM phosphocreatine, and 11 μM creatine kinase. […] Detection of fluorescently labeled substrates was done by a quantitative near-infrared scanning system, Odyssey.

Assay [2] deals with T1, APC/C. As to the kind of experiment: In vitro APC/C ubiquitination assay, fully reconstituted with recombinant APC/C, substrate securin. The following applies: 25 μM, lowest concentration of titration 25-100 μM, n = 3. Details: made in house; host or cells: SF9 insect cells, co-infected with two baculoviruses (bacmids a gift from David Barford). Type of assay: biochemical. As for the experimental part: Next, we tested the APC/C inhibitory proficiency of H1-6 in fully reconstituted activity assays with recombinant APC/C in comparison to BH3 and the commercially available APC/C inhibitor TAME. To account for mechanistic differences in APC/C inhibition between TAME (inhibits CDC20 binding) and ^i APC11 (inhibits E2 binding), all inhibitors, E2s and CDC20 were added simultaneously to APC/C. […] We observed no difference for UBE2C and only a small (∼10%) decrease in UBE2S autoubiquitylation compared to control reactions (Figure S16B–D).
To quantify the inhibitory effectiveness of H6, its IC50 was determined. To this end, we performed in vitro APC/C ubiquitination assays in the presence of H6 titrated from 0.01 to 100 μM (Figure S17B). […]
APC/C-dependent ubiquitination reactions were performed at 30 °C in 30 mM HEPES pH 7.4, 175 mM NaCl, 8 mM MgCl2, 0.05% Tween-20, 1 mM DTT and 5% glycerol and contained 20 nM recombinant APC/C, 340 nM CDC20, 46 nM GST-UBA1, 340 nM UBE2C (alternatively 400 nM UBE2D, 280 nM UBE2S), 21 μM His6-ubiquitin or if it is indicated 21 μM methylated-ubiquitin (BostonBiochem), 2.6 mM ATP, 10 mM phosphocreatine, and 11 μM creatine kinase. […] Detection of fluorescently labeled substrates was done by a quantitative near-infrared scanning system, Odyssey. […]

The target in assay [3] is T2, UBE2S (Homo sapiens, UniProt Q16763).
T2 construct: gift of Sonja Lorenz (MPI, Göttingen, Germany)
T2 sequence (Q16763 1-222): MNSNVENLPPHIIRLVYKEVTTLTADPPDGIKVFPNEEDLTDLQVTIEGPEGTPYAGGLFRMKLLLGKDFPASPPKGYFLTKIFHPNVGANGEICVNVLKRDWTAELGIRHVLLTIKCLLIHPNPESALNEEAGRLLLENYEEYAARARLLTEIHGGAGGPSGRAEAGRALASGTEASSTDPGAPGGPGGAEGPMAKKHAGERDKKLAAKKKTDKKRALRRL
As to the kind of experiment: In vitro E2 activity assay (autoubiquitination). Type of assay: biochemical. As to conditions: 100 μM, 45 min, 30 °C, Blue Silver staining, n = 3. As for the experimental part: UBE2C and UBE2S activity assays were performed at 30 °C in 50 mM HEPES pH 7.4, 100 mM KCl, 9 mM MgCl2, and contained 0.6 μM UBA1 (E1), 8 μM UBE2C or UBE2S, 60 μM His6-ubiquitin, and 5.6 mM ATP. It should be noted that wild-type UBE2C and UBE2S were used. The reaction was done in a volume of 15 μL, and it was quenched after 45 min with the LDS sample buffer supplemented with 100 mM DTT and subjected to SDS-PAGE followed by Blue Silver staining. Imaging of Blue Silver-stained gels was done by a quantitative near-infrared scanning system, Odyssey. It should be noted that reactions without ATP were first preincubated for 5 min at room temperature.

The target in assay [4] is T3, RBX1 (Homo sapiens, UniProt P62877).
T3 construct: endogenous in cells; host or cells: HeLa
T3 sequence (P62877 whole entry): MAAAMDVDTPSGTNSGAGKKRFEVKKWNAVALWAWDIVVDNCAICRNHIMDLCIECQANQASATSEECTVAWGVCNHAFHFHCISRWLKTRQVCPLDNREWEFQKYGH
The assay is described as follows: Pull-down binding assay from HeLa cell extract, Western blot. As to conditions: n = 3; for binding to RBX1, Pra-H1 versus Pra-BH3: pull-down with metaphase extracts. Here is the method: (§1) For protein transfer, a 0.45 μm Immobilon-FL PVDF membrane (Merck Millipore) was used. The membrane was activated in ethanol and then transferred to Blotting buffer (50 mM SDS-MOPS, 50 mM Tris base, 0.1% SDS, 1 mM EDTA, and 20% EtOH). The proteins were transferred using a wet transfer for 1.5 h at 400 mA. Subsequently, the membrane was incubated with the blocking solution, 10% milk in PBS-T (0.02% Tween-20 in PBS), for 1 h at room temperature. To detect proteins of interest, the membrane was incubated with primary antibodies overnight at 4° C, followed by 3 washes for 10 min with PBS-T and incubation with IRDye-labeled secondary antibodies for 1 h. Prior to detection, the membrane was washed twice with PBS-T for 10 min and once with PBS for 10 min. The detection was done using the quantitative near-infrared scanning system Odyssey (LI-COR Biosciences).
(§2) HeLa cell pellet was resuspended in the extraction buffer (30 mM HEPES pH 7.5, 175 mM NaCl, 2.5 mM MgCl2, 0.25% NP40, 10% glycerol, 1 mM DTT supplied with complete protease inhibitor cocktail (Roche), PhosSTOP phosphatase inhibitors (Roche), 1 mM PMSF, 10 μM MG132) and incubated for 20 min on ice, followed by centrifugation to clear the lysate for 15 min at 4 °C 16,100 g. In the meantime, inhibitor molecules containing the propargyl-Gly-OH (Pra) chemical group were covalently attached to the azide agarose resin (Jena Bioscience) by Cu(I)-catalyzed azide–alkyne cycloaddition reaction. Specifically, the inhibitor molecules were mixed with azide agarose resin in a ratio of 0.125 μmol inhibitor/20 μL agarose resin. The reaction was catalyzed by 0.1 mM CuSO4, 0.5 mM THPTA (Sigma-Aldrich), and 5 mM Sodium ascorbate and was performed on the rotating wheel for 30 min at room temperature in a volume of 1 mL. Subsequently, the resin was washed five times with extraction buffer. The inhibitor-agarose resin was added to 2 mg of HeLa cell extract and incubated at 4 °C for 2 h. Afterward, the resin was washed four times with extraction buffer. Pull-down proteins were eluted by incubation with prewarmed 1x LDS sample buffer for 10 min at room temperature, followed by taking supernatant supplemented with 100 mM DTT and boiling for 10 min. Afterward, SDS PAGE and Western blot analyses were performed to detect the indicated proteins.

For assay [5], the target named is T4, MDM2 (Homo sapiens, UniProt Q00987).
T4 construct: endogenous in cells; host or cells: HeLa
T4 sequence (Q00987 whole entry): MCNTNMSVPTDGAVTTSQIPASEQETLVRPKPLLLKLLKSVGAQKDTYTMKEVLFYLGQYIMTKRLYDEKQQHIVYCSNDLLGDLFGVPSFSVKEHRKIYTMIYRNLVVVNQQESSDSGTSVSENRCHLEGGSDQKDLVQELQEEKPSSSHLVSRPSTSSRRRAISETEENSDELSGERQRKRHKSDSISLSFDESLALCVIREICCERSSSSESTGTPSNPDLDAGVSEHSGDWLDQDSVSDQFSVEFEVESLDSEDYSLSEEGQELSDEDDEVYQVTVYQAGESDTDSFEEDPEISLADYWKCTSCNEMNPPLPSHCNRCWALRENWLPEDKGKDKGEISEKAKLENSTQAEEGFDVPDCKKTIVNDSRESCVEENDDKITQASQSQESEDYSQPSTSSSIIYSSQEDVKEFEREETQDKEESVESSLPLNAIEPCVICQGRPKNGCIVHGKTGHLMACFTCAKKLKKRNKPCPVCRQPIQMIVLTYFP
Described as above. As to conditions: peptide clicked to azide agarose beads, n = 3. As for the experimental part: as §1, §2

For assay [6], the target named is T5, BRCA1 (Homo sapiens, UniProt P38398).
T5 construct: endogenous in cells; host or cells: HeLa
T5 sequence (P38398 whole entry): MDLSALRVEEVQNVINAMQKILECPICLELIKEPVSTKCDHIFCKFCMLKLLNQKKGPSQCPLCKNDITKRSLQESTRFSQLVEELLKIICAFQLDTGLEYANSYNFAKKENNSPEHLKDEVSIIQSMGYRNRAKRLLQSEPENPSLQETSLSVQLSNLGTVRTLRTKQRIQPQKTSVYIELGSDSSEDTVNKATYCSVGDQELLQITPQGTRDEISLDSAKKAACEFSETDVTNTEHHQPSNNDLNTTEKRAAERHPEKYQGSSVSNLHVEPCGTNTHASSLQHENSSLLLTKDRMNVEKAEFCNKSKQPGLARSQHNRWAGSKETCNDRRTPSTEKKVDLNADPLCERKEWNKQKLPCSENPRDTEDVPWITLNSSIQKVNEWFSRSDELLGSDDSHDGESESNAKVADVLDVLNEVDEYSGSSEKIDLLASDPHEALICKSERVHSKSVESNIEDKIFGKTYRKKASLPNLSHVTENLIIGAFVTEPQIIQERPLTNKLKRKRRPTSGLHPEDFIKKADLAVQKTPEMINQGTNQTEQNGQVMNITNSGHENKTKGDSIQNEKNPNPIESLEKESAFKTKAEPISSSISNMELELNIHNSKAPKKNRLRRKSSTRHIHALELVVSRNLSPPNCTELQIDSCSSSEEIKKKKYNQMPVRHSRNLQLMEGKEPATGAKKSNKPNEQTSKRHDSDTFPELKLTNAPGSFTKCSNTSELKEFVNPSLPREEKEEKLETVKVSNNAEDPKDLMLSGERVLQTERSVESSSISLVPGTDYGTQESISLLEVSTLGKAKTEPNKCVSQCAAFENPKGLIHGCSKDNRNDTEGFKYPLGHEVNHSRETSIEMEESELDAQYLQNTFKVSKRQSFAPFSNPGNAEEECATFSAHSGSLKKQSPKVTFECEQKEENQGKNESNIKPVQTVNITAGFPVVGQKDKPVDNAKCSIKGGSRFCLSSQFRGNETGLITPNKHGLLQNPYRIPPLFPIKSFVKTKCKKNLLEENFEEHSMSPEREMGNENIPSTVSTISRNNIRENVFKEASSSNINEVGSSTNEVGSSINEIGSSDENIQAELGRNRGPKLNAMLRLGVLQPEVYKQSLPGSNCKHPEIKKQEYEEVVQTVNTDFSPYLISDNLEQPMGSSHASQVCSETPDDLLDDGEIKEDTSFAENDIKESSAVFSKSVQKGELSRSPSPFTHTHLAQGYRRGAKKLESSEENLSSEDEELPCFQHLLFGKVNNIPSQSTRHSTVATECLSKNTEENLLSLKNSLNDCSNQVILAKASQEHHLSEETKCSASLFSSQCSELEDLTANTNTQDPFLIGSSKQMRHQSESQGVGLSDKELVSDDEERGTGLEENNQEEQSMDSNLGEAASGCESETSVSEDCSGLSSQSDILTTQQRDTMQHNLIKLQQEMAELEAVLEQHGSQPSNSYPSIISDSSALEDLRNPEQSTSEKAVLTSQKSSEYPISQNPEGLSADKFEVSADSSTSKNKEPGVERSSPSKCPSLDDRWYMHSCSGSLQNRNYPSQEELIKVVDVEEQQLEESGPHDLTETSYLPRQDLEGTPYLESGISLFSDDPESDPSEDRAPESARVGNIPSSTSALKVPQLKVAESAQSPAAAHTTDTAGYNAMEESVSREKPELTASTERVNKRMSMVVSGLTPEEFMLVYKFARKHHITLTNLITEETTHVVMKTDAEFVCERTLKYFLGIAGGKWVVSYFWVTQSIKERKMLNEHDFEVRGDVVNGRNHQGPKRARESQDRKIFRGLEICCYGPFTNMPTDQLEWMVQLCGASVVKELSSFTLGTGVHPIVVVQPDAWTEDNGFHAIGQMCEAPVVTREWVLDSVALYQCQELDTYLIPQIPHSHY
Described as above. The following applies: peptide clicked to azide agarose beads, n = 3. As for the experimental part: as §1, §2

Assay [7] addresses T6, BMI1 (Homo sapiens, UniProt P35226).
T6 construct: endogenous in cells; host or cells: HeLa
T6 sequence (P35226 1-326): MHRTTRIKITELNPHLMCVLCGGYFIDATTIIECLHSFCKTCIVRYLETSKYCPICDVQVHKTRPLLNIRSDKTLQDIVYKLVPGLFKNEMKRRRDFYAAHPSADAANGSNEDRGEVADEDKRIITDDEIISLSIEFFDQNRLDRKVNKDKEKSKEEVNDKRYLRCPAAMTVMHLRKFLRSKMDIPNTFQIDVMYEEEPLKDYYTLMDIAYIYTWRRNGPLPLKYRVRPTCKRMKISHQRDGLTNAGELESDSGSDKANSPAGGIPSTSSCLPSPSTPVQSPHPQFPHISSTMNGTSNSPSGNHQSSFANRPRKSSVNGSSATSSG
Described as above. As to conditions: peptide clicked to azide agarose beads, n = 3. Here is the method:
as §1, §2

Assay [8] deals with T7, APC11 (Homo sapiens, UniProt Q9NYG5).
T7 construct: endogenous in cells; host or cells: HeLa
T7 sequence (Q9NYG5 whole entry): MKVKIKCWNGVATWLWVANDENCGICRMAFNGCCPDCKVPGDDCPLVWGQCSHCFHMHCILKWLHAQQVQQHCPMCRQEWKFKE
The description is as above. The following applies: peptide clicked to azide agarose beads, 2 mg HeLa extract, 4 °C, 2 h, n = 3. As for the experimental part:
as §1, §2

Assay [9] addresses T8, c-CBL (Homo sapiens, UniProt P22681).
T8 construct: endogenous in cells; host or cells: HeLa
The description is as above. As to conditions: peptide clicked to azide agarose beads, n = 3. As for the experimental part: as §1, §2

Assay [10] deals with T9, c-IAP1 (Homo sapiens, UniProt Q13490).
T9 construct: endogenous in cells; host or cells: HeLa
T9 sequence (Q13490 whole entry): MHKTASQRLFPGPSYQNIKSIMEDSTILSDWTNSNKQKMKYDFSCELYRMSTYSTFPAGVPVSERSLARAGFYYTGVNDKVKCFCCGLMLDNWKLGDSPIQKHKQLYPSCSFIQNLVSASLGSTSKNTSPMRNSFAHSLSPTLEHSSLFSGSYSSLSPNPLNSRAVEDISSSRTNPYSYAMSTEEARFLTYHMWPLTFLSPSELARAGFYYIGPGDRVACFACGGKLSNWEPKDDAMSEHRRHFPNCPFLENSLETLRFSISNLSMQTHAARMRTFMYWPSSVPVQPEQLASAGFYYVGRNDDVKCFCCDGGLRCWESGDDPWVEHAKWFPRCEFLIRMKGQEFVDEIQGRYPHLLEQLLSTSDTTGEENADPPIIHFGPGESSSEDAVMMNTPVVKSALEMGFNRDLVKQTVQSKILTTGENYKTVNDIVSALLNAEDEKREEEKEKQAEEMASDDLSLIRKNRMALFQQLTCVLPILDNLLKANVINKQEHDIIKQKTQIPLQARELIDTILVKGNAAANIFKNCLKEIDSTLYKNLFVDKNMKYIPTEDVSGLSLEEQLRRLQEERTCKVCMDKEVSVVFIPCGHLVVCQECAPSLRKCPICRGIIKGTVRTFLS
The assay is described as above. The following applies: peptide clicked to azide agarose beads, n = 3. Here is the method:
as §1, §2

Experimental findings from PMC12169662, “De Novo-Designed APC/C Inhibitors Provide a Rationale for Targeting RING-Type E3 Ubiquitin Ligases” (Journal of Medicinal Chemistry, 2025) are described below.

Bridge positions count the residues as written; N and C are the ends. Square brackets hold non-standard residues; d marks the D form. Peptide text beside a SMILES is read from it. R8 = C=CCCCCCC[C@@](C)(N)C(=O)O; S5 = C=CCCC[C@](C)(N)C(=O)O; Pra = C#CC[C@H](N)C(=O)O

On to `C[C@@H](O)[C@H](NC(=O)[C@H](CCCNC(=N)N)NC(=O)[C@@H]1CSSC[C@H](NC(=O)[C@H](CCCNC(=N)N)NC(=O)CN)C(=O)N[C@@H](Cc2c[nH]cn2)C(=O)N[C@@H](Cc2c[nH]c3ccccc23)C(=O)NCC(=O)N2CCC[C@H]2C(=O)N[C@@H](CCC(=O)O)C(=O)N[C@@H]([C@@H](C)O)C(=O)N[C@@H](Cc2ccccc2)C(=O)N[C@@H](Cc2c[nH]c3ccccc23)C(=O)N1)C(=O)O` [BH4] (H-GRCHWGPETFWCRT-OH; disulfide 3-12), for which the “securin ubiquitylation compared to control reactions” value in assay [1] is reported as “no such effect”.

As for `CC[C@H](C)[C@@H]1NC(=O)[C@H](CCC(=O)O)NC(=O)[C@H](CCCCN)NC(=O)[C@H]([C@@H](C)CC)NC(=O)[C@](C)(NC(=O)[C@H](Cc2c[nH]c3ccccc23)NC(=O)[C@H](Cc2c[nH]c3ccccc23)NC(=O)[C@H](CCC(=O)O)NC(C)=O)CCCCCCC=CCCC[C@@](C)(C(=O)N[C@@H](CCCNC(=N)N)C(=O)N[C@@H](CCCNC(=N)N)C(=O)N[C@@H](C)C(N)=O)NC(=O)[C@H](CCCNC(=N)N)NC(=O)[C@H](CCC(N)=O)NC1=O` [H6] (Ac-EWW[R8]IKEIQR[S5]RRA-NH2; staple 4-11), the “reduction of APC/C activity toward securin” value in assay [2] was “more than 80%”. Also, the “decrease in UBE2S autoubiquitylation compared to control reactions” value in [3] was around 10%.

`C#CC[C@H](NC(=O)[C@@H]1CCCN1C(=O)[C@H](Cc1c[nH]c2ccccc12)NC(=O)[C@H](CCCNC(=N)N)NC(C)=O)C(=O)N[C@@]1(C)CCCC=CCCC[C@@](C)(C(=O)N[C@@H](CCC(N)=O)C(=O)N[C@H](C(=O)N[C@@H](CCCNC(=N)N)C(=O)N[C@@H](CCCNC(=N)N)C(=O)N[C@@H](Cc2c[nH]c3ccccc23)C(N)=O)C(C)C)NC(=O)[C@H](CC(=O)O)NC(=O)[C@H](Cc2c[nH]c3ccccc23)NC(=O)[C@H](CCCCN)NC1=O` [Pra-H1] (Ac-RWP[Pra][S5]KWD[S5]QVRRW-NH2; staple 5-9): in [4], the “binding to RBX1, Pra-H1 versus Pra-BH3” value is “very weak and unchanged”.

As to “Ac-[Pra]RCHWGPRTFWCR-NH2 (disulfide 3-12 (inferred); SMILES C#CC[C@H](NC(C)=O)C(=O)N[C@@H](CCCNC(=N)N)C(=O)N[C@H]1CSSC[C@@H](C(=O)N[C@@H](CCCNC(=N)N)C(N)=O)NC(=O)[C@H](Cc2c[nH]c3ccccc23)NC(=O)[C@H](Cc2ccccc2)NC(=O)[C@H]([C@@H](C)O)NC(=O)[C@H](CCCNC(=N)N)NC(=O)[C@@H]2CCCN2C(=O)CNC(=O)[C@H](Cc2c[nH]c3ccccc23)NC(=O)[C@H](Cc2c[nH]cn2)NC1=O) [Pra-BH3, BH3 with propargylglycine at the N-term for click chemistry]”, the “precipitation of MDM2 on beads” value in assay [5] is recorded as “precipitated”. Also, the “precipitation of BRCA1 on beads, enrichment over input” value in [6] was “weaker”. Moreover, the “enrichment of RBX1 on beads” value in assay [4] (peptide clicked to azide agarose beads, 2 mg HeLa extract, 4 °C, 2 h) was “not”. Further, the “binding to RBX1, Pra-H1 versus Pra-BH3” value in assay [4] is “very weak and unchanged”. In addition, the “precipitation of BMI1 on beads, enrichment over input” value in assay [7] is given as “weaker”. Further, the “enrichment of APC11 on beads” value in assay [8] is “strong enrichment”. Further, in [9], the “precipitation of c-CBL on beads” value is recorded as “precipitated”. Moreover, the “precipitation of c-IAP1 on beads, enrichment over input” value in assay [10] is on record as “weaker”.
